Source: patent US12331054B2, “Perk inhibiting imidazolopyrazine compounds” (HiberCell, Inc., priority 2019, dated 2025)
pIC50: −log10 of the molar value.

Legend:
[1] = molecular target: Recombinant human EIF2AK3 (PERK) catalytic domain (amino acids 536-1116) (Homo sapiens (Human), UniProt Q9NZJ5); assay: PERK In Vitro Activity Assay (isolated), TR-FRET kinase assay; conditions: isolated PERK enzyme, 1.5 μM ATP, read-out: Biochemical IC50
From the text: PERK In Vitro Activity Assay (isolated):
In vitro Inhibition of PERK Enzyme Activity (isolated) Recombinant human EIF2AK2 (PKR) catalytic domain (amino acids 252-551), EIF2AK3 (PERK) catalytic domain (amino acids 536-1116), GFP-eIF2a substrate, and Terbium-labelled phospho-eIF2a antibody is obtained (Invitrogen, Carlsbad, CA).
Express and purify HIS-SUMO-GCN2 catalytic domain (amino acids 584-1019) from E. coli. Perform TR-FRET kinase assays in the absence or presence of inhibitors in a reaction buffer consisting of 50 mM HEPES, pH 7.5, 10 mM MgCb, 1.0 mM EGTA, and 0.01% Brij-35, and 100-200 nM GFP-eIF2a substrate. […] Add test compound, initiate the reaction by addition of enzyme, and incubate at room temperature for 45 minutes. Stop the reaction by addition of EDTA to a final concentration of 10 mM, add Terbium-labelled phospho-eIF2a antibody at a final concentration of 2 nM, and incubate for 90 minutes. Monitor the resulting fluorescence in an EnVison® Multilabel reader (PerkinElmer, Waltham, MA). Determine TR-FRET ratios and the resulting IC50 values using a 4-parameter nonlinear logistic equation as shown: Y=(A+((B−A)/(1+(C/x)AD)))) where, Y=% specific inhibition, A=Bottom of the curve, B=Top of the curve, C=absolute IC50 (concentration causing 50% inhibition), and D=hill slope.

[2] = test system: eIF2α in HEK293-EGFP-eIF2α cells; assay: PERK Cellular Assay (HEK293-EGFP-eIF2α cells, tunicamycin-induced ER stress, TR-FRET); assay type: cell-based; conditions: tunicamycin 2 hours
Description: Stable cell lines were created in HEK293 cells using lentiviral particles harboring an expression vector for GFP-eIF2α. Cells were selected using puromycin and enriched using fluorescence activated cell sorting against GFP. HEK293-EGFP-eIF2α cells were plated at 5000 cells/well in 384-well assay plates and incubated overnight at 37° C., 5% CO2. Inhibitor compounds were added to the wells by Echo acoustic dispensing and incubated for 30 minutes at 37° C., 5% CO2 prior to induction of ER stress by addition of tunicamycin to […] for 2 hours. Cells were lysed and TR-FRET was measured in an EnVision plate reader (PerkinElmer). FRET ratio data was normalized to signal from lysates treated with DMSO vehicle control and plotted as percent inhibition against 10-point; 3-fold dilution series of inhibitors. IC50 values were calculated using 4-parameter logistical fitting in XLFit.

Sequence of Recombinant human EIF2AK3 (PERK) catalytic domain (amino acids 536-1116) (Q9NZJ5 536-1116): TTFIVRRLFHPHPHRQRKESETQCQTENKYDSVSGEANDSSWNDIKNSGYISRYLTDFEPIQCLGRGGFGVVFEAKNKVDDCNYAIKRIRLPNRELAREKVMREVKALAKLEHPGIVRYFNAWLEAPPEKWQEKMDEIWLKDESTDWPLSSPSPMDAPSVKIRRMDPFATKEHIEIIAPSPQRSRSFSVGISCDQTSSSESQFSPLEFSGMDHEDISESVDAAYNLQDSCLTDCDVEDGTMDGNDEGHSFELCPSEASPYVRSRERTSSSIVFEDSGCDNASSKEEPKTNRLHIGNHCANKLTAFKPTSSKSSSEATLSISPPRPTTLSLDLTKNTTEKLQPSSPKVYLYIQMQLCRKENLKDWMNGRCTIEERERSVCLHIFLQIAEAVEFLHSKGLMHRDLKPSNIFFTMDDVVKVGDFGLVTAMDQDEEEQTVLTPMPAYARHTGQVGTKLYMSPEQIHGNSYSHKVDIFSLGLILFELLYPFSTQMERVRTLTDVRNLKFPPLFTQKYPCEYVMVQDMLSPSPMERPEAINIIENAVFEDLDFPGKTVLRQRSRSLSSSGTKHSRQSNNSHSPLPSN

Structure (SMILES) | pIC50 [1] | pIC50 [2]
Cc1cnc(N)c2c(-c3ccc(NC(=O)C(O)c4cccc(F)c4)cc3OC(F)(F)F)nc(C)n12 (centres unmarked) [Example 127, N-(4-(8-amino-3,5-dimethyl-imidazo[1,5-a]pyrazin-1-yl)-3-(trifluoromethoxy)phenyl)-2-(3-fluorophenyl)-2-hydroxyacetamide] | 7.60 to 9.00 | 6.60 to 7.00
[2H]C([2H])([2H])c1nc(-c2ccc(NC(=O)C(O)c3cccc(C(F)(F)F)c3)cc2C)c2c(N)ncc(Cl)n12 (centres unmarked) [Example 19, N-[4-[8-amino-5-chloro-3-(trideuteriomethyl)imidazo[1,5-a]pyrazin-1-yl]-3-methyl-phenyl]-2-hydroxy-2-[3-(trifluoromethyl)phenyl]acetamide] | 7.60 to 9.00 | 7.30 to 7.59
[2H]C([2H])([2H])c1nc(-c2ccc(NC(=O)C(O)c3cc(F)cc(C(F)(F)F)c3)c(F)c2F)c2c(N)nc(C)cn12 (centres unmarked) [Example 166, N-[4-[8-amino-6-methyl-3-(trideuteriomethyl)imidazo[1,5-a]pyrazin-1-yl]-2,3-difluoro-phenyl]-2-[3-fluoro-5-(trifluoromethyl)phenyl]-2-hydroxy-acetamide] | 7.60 to 9.00 | 7.60 to 9.00
[2H]C([2H])([2H])c1nc(-c2ccc(NC(=O)C(O)c3cccc(Cl)c3)cc2C)c2c(N)ncc(C)n12 (centres unmarked) [Example 37, N-[4-[8-amino-5-methyl-3-(trideuteriomethyl)imidazo[1,5-a]pyrazin-1-yl]-3-methyl-phenyl]-2-(3-chlorophenyl)-2-hydroxy-acetamide] | 7.60 to 9.00 | 7.00 to 7.29
[2H]C([2H])([2H])c1nc(-c2ccc(NC(=O)C(O)c3cccc(C(F)(F)F)c3)cc2F)c2c(N)ncc(C(F)(F)F)n12 (centres unmarked) [Example 98, N-[4-[8-amino-3-(trideuteriomethyl)-5-(trifluoromethyl)imidazo[1,5-a]pyrazin-1-yl]-3-fluoro-phenyl]-2-hydroxy-2-[3-(trifluoromethyl)phenyl]acetamide] | 7.60 to 9.00 | 7.30 to 7.59
Cc1cc(NC(=O)C(O)c2cc(F)cc(C(F)(F)F)c2)ccc1-c1nc(C)n2c(C)cnc(N)c12 (centres unmarked) [Example 58, N-(4-(8-amino-3,5-dimethylimidazo [1,5-a]pyrazin-1-yl)-3-methylphenyl)-2-(3-fluoro-5-(trifluoromethyl)phenyl)-2-hydroxyacetamide] | 7.60 to 9.00 | 7.30 to 7.59
[2H]C([2H])([2H])c1nc(-c2ccc(NC(=O)C(O)c3cc(F)cc(F)c3)cc2C)c2c(N)ncc(C)n12 (centres unmarked) [Example 51, N-[4-[8-amino-5-methyl-3-(trideuteriomethyl)imidazo[1,5-a]pyrazin-1-yl]-3-methyl-phenyl]-2-(3,5-difluoro-phenyl)-2-hydroxy-acetamide] | 7.60 to 9.00 | 7.00 to 7.29
[2H]C([2H])([2H])c1nc(-c2ccc(NC(=O)C(O)c3cccc(F)c3)cc2C)c2c(N)ncc(Cl)n12 (centres unmarked) [Example 32, N-[4-[8-amino-5-chloro-3-(trideuteriomethyl)imidazo[1,5-a]pyrazin-1-yl]-3-methyl-phenyl]-2-(3-fluorophenyl)-2-hydroxy-acetamide] | 7.60 to 9.00 | 7.60 to 9.00
[2H]C([2H])([2H])c1nc(-c2ccc(NC(=O)C(O)c3cc(F)cc(C(F)(F)F)c3)cc2F)c2c(N)nc(C)cn12 (centres unmarked) [Example 116, N-[4-[8-amino-6-methyl-3-(trideuteriomethyl)imidazo[1,5-a]pyrazin-1-yl]-3-fluoro-phenyl]-2-[3-fluoro-5-(trifluoromethyl)phenyl]-2-hydroxy-acetamide] | 7.60 to 9.00 | 7.60 to 9.00
[2H]C([2H])([2H])c1nc(-c2ccc(NC(=O)C(O)c3cc(F)cc(C(F)(F)F)c3)cc2C)c2c(N)ncc(C(F)(F)F)n12 (centres unmarked) [Example 61, N-[4-[8-amino-3-(trideuteriomethyl)-5-(trifluoromethyl)imidazo[1,5-a]pyrazin-1-yl]-3-methyl-phenyl]-2-[3-fluoro-5-(trifluoromethyl)phenyl]-2-hydroxy-acetamide] | 7.00 to 7.29 | 6.30 to 6.60
